Assay results as given in PMC3506555, “[^11C]phenytoin revisited: synthesis by [^11C]CO carbonylation and first evaluation as a P-gp tracer in rats” (EJNMMI Research, 2012).

Legend:
[1] = Observation of animals after probenecid administration; format: in vivo; conditions: probenecid 150 mg·kg^−1 i.v., during 30 to 40 min after administration
[2] = test system: P-gp; set-up: method as in PMID 14642487, PMID 16857389, PMID 15961982, PMID 18783208, PMID 19647170; conditions: rat and human brain; cited from earlier work

| SMILES | Breathing frequency after administration [1] | Brain-to-plasma equilibrium concentration ratio (VT) at baseline [2] |
| --- | --- | --- |
| CCCN(CCC)S(=O)(=O)c1ccc(C(=O)O)cc1 [probenecid] | severely depressed breathing frequency |  |
| COc1cc2c(cc1OC)CN(CCc1ccc(NC(=O)c3cc(O[11CH3])c(OC)cc3NC(=O)c3cnc4ccccc4c3)cc1)CC2 [^11C]tariquidar] |  | about 1 |
| [11CH3]NC(=O)C(CCN1CCC(O)(c2ccc(Cl)cc2)CC1)(c1ccccc1)c1ccccc1 [^11C]desmethyl loperamide] |  | about 1 |
| COC(=O)c1cnc2n1CCc1ccccc1C2=C1CCN(CCc2ccc(OCc3ccc4ccccc4n3)cc2)CC1 [^11C]laniquidar] |  | about 1 |
